# Measured values: patent US20260284016A1, “COMBINATIONS AND METHODS FOR ENHANCING CHECKPOINT INHIBITOR THERAPIES IN CANCER TREATMENT” (PURDUE RESEARCH FOUNDATION, priority 2004, published 2026)
# Key:
# [1] = tested on: human primary monocyte-derived M2-macrophages; test: IL-6 and CXCL-10 induction in monocyte-derived M2-macrophages; assay type: cell-based; details: 48 hours
# [2] = tested on: peripheral blood mono nuclear cells (PBMCs); test: IL-6 in PBMC culture supernatant by ELISA; assay type: cell-based; details: 24 hours
# Procedure: To evaluate the efficacy of TLR-7 agonists, Compound 1 (TLR7-TA), Compound 2 (TLR7-1B) and Compound 3 (TLR7-1C) were treated with peripheral blood mono nuclear cells (PBMCs) for 24 hours. TLR7-1 was used as control. Cell culture supernatant was isolated and tested for IL-6 using enzyme-linked immunosorbent assay (ELISA) (FIG. 22).
smiles,measurement,setting,value
Nc1nc2ncc(CNc3ccc(C(=O)NC(CCC(=O)N[C@@H](CSSCCOC(=O)OCC4CCCN(CCNc5ccc(Cn6c(=O)[nH]c7c(N)nc(C(F)(F)F)cc76)cn5)C4)C(=O)O)C(=O)O)cc3)nc2c(=O)[nH]1 (stereo partly shown) [Compound 3],CXCL-10 induction compared to parent compound TLR7-1,[1],more efficiently
same,IL-6 induction compared to parent compound TLR7-1,[1],more efficiently
same,"macrophage polarization (M1 markers IL-6, CXCL10)",[1],polarize the M2 macrophages to M1 macrophages
same,IL-6 in culture supernatant,[2],increased expression of IL-6
